The values below are quoted from earlier work in US4276288A, “Dehydrooligopeptides, their production and their medicinal use” (Troponwerke GmbH & Co., KG, priority 1976, dated 1981).

Read-outs that look alike come from different tables or passages of the source.

The data set relates to tumour cells.

For the compound `O=P1(N(CCCl)CCCl)NCCCO1` (centres unmarked) [cyclophosphamide], the tumour cells destroyed runs as follows: (LD10 dosage) 99.999%; (one eighth of the LD10 dose) 90%.
